The text below walks through data of patent US5541343A, “Cyclic imino derivatives and pharmaceutical compositions containing them” (Karl Thomae GmbH, priority 1990, dated 1996).

Molecules are shown by their SMILES. pEC50, pIC50: −log10 of the molar value. Counter-ions that a name gives are not always drawn.

The subject of one series is platelet aggregation. As to the kind of experiment: Antithrombotic effect: collagen-induced platelet aggregation (Born and Cross method) in platelet-rich plasma. The series is classed as cell-based. The conditions noted are these: Homo sapiens, 10 minutes preincubation at 37° C., 50% change in optical density, read-out: Inhibition of platelet aggregation EC50. How it is done:
The thrombocyte aggregation is measured by the Born and Cross method (J. Physiol. 170: 397 (1964)) in platelet-rich plasma from healthy test subjects. To inhibit coagulation, 3.14% sodium citrate is added to the blood in a ratio by volume of 1:10.
Collagen-induced aggregation
The curve of the decrease in optical density of the platelet suspension is measured and recorded photometrically after the addition of the aggregation-inducing substance. The speed of aggregation is determined from the angle of inclination of the density curve. The point on the curve where maximum transmittance occurs is used to calculate the optical density.
The quantity of collagen is made as small as possible but sufficient to produce an irreversible reaction curve. Standard commercial collagen made by Hormonchemie of Munich is used. Before the addition of collagen, the plasma is incubated for 10 minutes with the substance at 37° C.
From the measurements obtained, an EC50 is determined graphically relating to a 50% change in the optical density in the sense of an inhibition of aggregation.

A further series concerns the target human thrombocytes. The experiment in a line: Fibrinogen binding to human thrombocytes. The conditions noted are these: gel-filtered platelets, 125-J-fibrinogen, 20 minutes at ambient temperature; read-out: Fibrinogen binding test IC50. Here is the method: 1. Fibrinogen binding to human thrombocytes
Blood obtained by puncture of an antecubital vein is anticoagulated with trisodium citrate (final concentration: 13 mM) and centrifuged for 10 minutes at 170 g. The supernatant platelet-rich plasma is placed on a Sepharose 2B column (Pharmacia) and eluted with a solution of 90 mM common salt, 14 mM trisodium citrate, 5 mM glucose and 50 mM tris(hydroxymethyl)aminomethane, adjusted to pH 7.4. The gel-filtered platelets (GFP) appearing in front of the plasma proteins are used for the binding tests.
50 μl of a 60 mM calcium chloride solution, 50 μl of a 0.6 mM adenosine diphosphate solution, 100 μl of substance solution or solvent and 50 μl of fibrinogen solution (containing 3 μg 125-J-fibrinogen) are added to 750 μl of GFP and incubated for 20 minutes at ambient temperature. The non-specific binding is measured in the presence of 3 mg/ml of cold fibrinogen.
900 μl of the incubate are carefully pipetted onto 250 μl of silicon oil (AP 38: AR 20, 1:2 v/v, Wacker Chemie) in Eppendorf vessels and centrifuged for 2 minutes at 10,000 g. The aqueous supernatant and some of the oil are removed, the tip of the vessel with the platelet pellet is cut off and the quantity of bound fibrinogen is measured in a gamma-counter. The concentration of substance which inhibits fibrinogen binding by 50% is calculated from a concentration series and given as the IC50.

Series [1] concerns collagen-induced thrombocyte aggregation. As to the kind of experiment: Collagen-induced thrombocyte aggregation ex vivo in rhesus monkeys following oral administration. The conditions noted are these: 1 mg/kg. Here is the method: Moreover, the compound of Example 70(1), for example, inhibits collagen-induced thrombocyte aggregation ex vivo in rhesus monkeys following oral administration of 1 mg/kg for more than 8 hours.

Series [2] can be described thus: Approximate LD50 in rats (tolerability). The conditions noted are these: rat, in vivo, after intravenous route. How it is done:
The new compounds are well tolerated since the approximate LD50 in rats is, for example, for the compound of Example (3) above 100 mg/kg after intravenous route and for the compound of Example 70(1) above 2.000 mg/kg after oral administration.

With `N=C(N)c1ccc(-c2ccc(OC[C@H]3CNC(=O)[C@@H]3CC(=O)O)cc2)cc1` (relative stereo) [7(89), (3R,S;4R,S)-4-[(4'-amidino-4-biphenylyl)oxymethyl]-3-carboxymethyl-2-pyrrolidinone], in the series with platelet aggregation, the pEC50 was 5.55. For the same compound, the negative-log IC50 (pIC50) on human thrombocytes is 6.64. Consider `N=C(N)NCCCCCOc1ccc([C@@H]2C[C@@H](CC(=O)O)C(=O)N2CCCc2ccccc2)cc1` (relative stereo) [31(1), (3S,R;5S,R)-3-carboxymethyl-5-[4-[(5-guanidinopentyl)oxy]phenyl]-1-(3-phenylpropyl)-2-pyrrolidinone], for which the pEC50 in the series with platelet aggregation is 4.18. In addition, the pIC50 on human thrombocytes was 5.33. The matching figures for `COC(=O)C[C@@H]1C[C@@H](COc2ccc(-c3ccc(C(=N)N)cc3)cc2)NC1=O` [6(2), (3S,5S)-5-[(4'-amidino-4-biphenylyl)oxymethyl]-3-[(methoxycarbonyl)methyl]-2-pyrrolidinone×1.25 HCl]: 5.72 and 5.64. On the same counts, the results for `N=C(N)c1ccc(-c2ccc(N3CC(CP(=O)(O)O)CC3=O)cc2)cc1` (centres unmarked) [6(184), 1-(4'-amidino-4-biphenylyl)-4-phosphonomethyl-2-pyrrolidinone] are 6.00 and 6.38.

With `N=C(N)c1ccc(-c2ccc(OC[C@@H]3C[C@@H](CC(=O)O)C(=O)N3c3ccccc3)cc2)cc1` [7(1), (3S,5S)-5-[(4'-amidino-4-biphenylyl)oxymethyl]-3-carboxymethyl-1-phenyl-2-pyrrolidinone-dihydrate], in the series with platelet aggregation, the pEC50 was 6.77. The negative logarithm of the IC50 (pIC50) at human thrombocytes was 7.62. Turning to `N=C(N)c1ccc(-c2ccc(OC[C@@H]3C[C@@H](CC(=O)O)C(=O)N3)cc2)cc1` [7(3), (3S,5S)-5-[(4'-amidino-4-biphenylyl)oxymethyl]-3-carboxymethyl-2-pyrrolidinone], the pEC50 in the series on platelet aggregation was 7.22. Also, the pIC50 at human thrombocytes is 7.51. On the same counts, the results for `Cc1c(OC[C@@H]2C[C@@H](CC(=O)O)C(=O)N2CCCc2ccccc2)ccc(-c2ccc(C(=N)N)cc2)c1C` [7(10), (3S,5S)-5-[(4'-amidino-2,3-dimethyl-4-biphenylyl)oxymethyl]-3-carboxymethyl-1-(3-phenylpropyl)-2-pyrrolidinone-hydrate] are 5.59 and 7.30. On to `N=C(N)c1ccc2c(c1)C(=O)c1cc(OC[C@@H]3C[C@@H](CC(=O)O)C(=O)N3CCCc3ccccc3)ccc1-2` [7(36), (3S,5S)-5-[(7-amidino-9-keto-2-fluorenyl)oxymethyl]-3-carboxymethyl-1-(3-phenylpropyl)-2-pyrrolidinone], for which the pEC50 in the series on platelet aggregation is 6.39. In addition, the pIC50 on human thrombocytes is 7.39. For the compound `CC(=O)N(C[C@@H]1C[C@@H](CC(=O)O)C(=O)N1CCCc1ccccc1)c1ccc(-c2ccc(C(=N)N)cc2)cc1` [7(40), (3S,5S)-5-[[N-(4'-amidino-4-biphenylyl)-N-acetyl]aminomethyl]-3-carboxymethyl-1-(3-phenylpropyl)-2-pyrrolidinonehydrate], the pEC50 in the series with platelet aggregation is 5.70. The pIC50 at human thrombocytes was 6.77.

On to `N=C(N)c1ccc(Nc2ccccc2C(=O)NC[C@@H]2C[C@@H](CC(=O)O)C(=O)N2CCCc2ccccc2)cc1` [7(41), (3S,5S)-5-[[2-[(4-amidinophenyl)amino]phenyl]carbonylaminomethyl]-3-carboxymethyl-1-(3-phenylpropyl)-2-pyrrolidinone], for which the negative-log EC50 (pEC50) with platelet aggregation was 4.72. The negative logarithm of the IC50 (pIC50) at human thrombocytes is 5.55. On the same counts, the results for `N=C(N)c1cccc(C(=O)c2ccc(OC[C@@H]3C[C@@H](CC(=O)O)C(=O)N3CCCc3ccccc3)cc2)c1` [7(46), (3S,5S)-5-[[4-[(3-amidinophenyl)carbonyl]phenyl]oxymethyl]-3-carboxymethyl-1-(3-phenylpropyl)-2-pyrrolidinone] are 4.92 and 6.16. In the case of `CN(C)C(=O)CN1C(=O)[C@H](CC(=O)O)C[C@H]1COc1ccc(-c2ccc(C(=N)N)cc2)cc1` [7(51), (3S,5S)-5-[(4'-amidino-4-biphenylyl)oxymethyl]-3-carboxymethyl-1-[(dimethylaminocarbonyl)methyl]-2-pyrrolidinone hydrochloride-semihydrate], the negative-log EC50 (pEC50) with platelet aggregation is 7.10. For the same compound, the negative logarithm of the IC50 (pIC50) at human thrombocytes is 7.57.

In the case of `CC(=O)N1C[C@H](CC(=O)O)C[C@H]1COc1ccc(-c2ccc(C(=N)N)cc2)cc1` [7(56), (3S,5S)-1-acetyl-5-[(4'-amidino-4-biphenylyl)oxymethyl]-3-carboxymethyl-pyrrolidine-semihydrate], the negative-log EC50 (pEC50) with platelet aggregation was 7.22. In addition, the pIC50 on human thrombocytes was 7.70. With `CN(C)S(=O)(=O)N1C[C@H](CC(=O)O)C[C@H]1COc1ccc(-c2ccc(C(=N)N)cc2)cc1` [7(58), (3S,5S)-5-[(4'-amidino-4-biphenylyl)oxymethyl]-3-carboxymethyl-1-(dimethylaminosulphonyl)-pyrrolidine×0.25 water], the negative logarithm of the EC50 (pEC50) with platelet aggregation was 6.68. Also, on human thrombocytes, the negative logarithm of the IC50 (pIC50) is 7.70. As to `N=C(N)c1ccc(-c2ccc(S(=O)(=O)NC[C@@H]3C[C@@H](CC(=O)O)C(=O)N3CCCc3ccccc3)cc2)cc1` [7(70)], in the series on platelet aggregation, the pEC50 was 4.72. Further, the pIC50 at human thrombocytes was 6.40.

Take `N=C(N)c1ccc(-c2ccc(OC[C@@H]3C[C@@H](CC(=O)O)C(=O)N3)cc2)cc1F` [7(93), (3S,5S)-5-[(4'-amidino-3'-fluoro-4-biphenylyl)oxymethyl]-3-carboxymethyl-2-pyrrolidinone]: in the series on platelet aggregation, the negative-log EC50 (pEC50) was 7.00. The negative logarithm of the IC50 (pIC50) on human thrombocytes is 7.59. On to `NCCCCc1ccc(OC[C@@H]2C[C@@H](CC(=O)O)C(=O)N2CCCc2ccccc2)cc1` [23(8), (3S,5S)-5-[[4-(4-aminobutyl)phenyl]oxymethyl]-3-carboxymethyl-1-(3-phenylpropyl)-2-pyrrolidinonesemihydrate ×1.25 HCl], for which the pEC50 with platelet aggregation is 4.70. Besides, the pIC50 on human thrombocytes is 5.34.

With `NCCCC(=O)Nc1ccc(OC[C@@H]2C[C@@H](CC(=O)O)C(=O)N2CCCc2ccccc2)cc1` [32(1), (3S,5S)-5-[[4-[(3-aminopropyl)carbonylamino]phenyl]oxymethyl]-3-carboxymethyl-1-(3-phenylpropyl)-2-pyrrolidinone], the pEC50 in the series with platelet aggregation was 4.48. For the same compound, the negative-log IC50 (pIC50) at human thrombocytes is 5.66. On to `N=C(N)c1ccc(-c2ccc(OC[C@@H]3C[C@@H](CC(=O)O)C(=O)N3CCCc3ccccc3)cc2)cc1` [Example 7, (3S,5S)-5-[(4'-Amidino-4-biphenylyl)oxymethyl)-3-carboxymethyl-1-(3-phenylpropyl)-2-pyrrolidinone-hydrate], for which the pEC50 in the series with platelet aggregation was 6.05. Further, the negative logarithm of the IC50 (pIC50) at human thrombocytes is 7.49.

Turning to `NC1CCc2cc(C(=O)NCC[C@@H]3C[C@@H](CC(=O)O)C(=O)N3CCCc3ccccc3)ccc2C1` (stereo partly drawn) [Example 32, (3S,5S)-5-[2-[(6-Amino-5,6,7,8-tetrahydro-2-naphthylcarbonyl)amino]ethyl]-3-carboxymethyl-1-(3-phenylpropyl)-2-pyrrolidinone-semihydrate], in the series with platelet aggregation, the pEC50 is 5.24. The pIC50 at human thrombocytes was 5.92.

For the compound `COC(=O)C[C@@H]1C[C@@H](COc2ccc(-c3ccc(C(=N)NC(=O)OC)cc3)cc2)NC1=O` [Example 70(1), (3S,5S)-5-[[4'-(N-methoxycarbonylamidino)-4biphenylyl]oxymethyl]-3-[(methoxycarbonyl)methyl]-2-pyrrolidinone], the “inhibits collagen-induced thrombocyte aggregation ex vivo (duration of inhibition)” value in series [1] was “more than 8 hours”. For `N=C(NO)c1ccc(-c2ccc(OC[C@@H]3C[C@@H](CC(=O)O)C(=O)N3)cc2)cc1` [Example 71, (3S,5S)-3-Carboxymethyl-5-[[4'-(N-hydroxyamidino)-4biphenylyl)oxymethyl]-2-pyrrolidinone], the pEC50 in the series with platelet aggregation was 4.96. Further, the negative logarithm of the IC50 (pIC50) at human thrombocytes was 5.34. Take `N=C(N)c1ccc(-c2ccc(OC[C@@H]3C[C@@H](CC(=O)O)C(=O)N3)cc2)cc1` [Example (3), (3S,5S)-5-[(4'-amidino-4-biphenylyl)oxymethyl]-3-carboxymethyl-2-pyrrolidinone]: the LD50 in series [2] was over 100 mg/kg.

What is called pEC50 is the negative decadic logarithm of the EC50, by convention in mol/L. A word on the pIC50: it is the IC50 on a negative log10 scale, so that one unit is a factor of ten. The LD50 is the dose expected to kill half of the subjects tested. A high value points to lower toxicity.
